The text below walks through data of patent publication US20250268926A1, “METHOD AND COMPOSITION FOR TREATING, ALLEVIATING OR PREVENTING A DISEASE OR CONDITION CAUSED BY AIR POLLUTANT” (Hong Kong Baptist University, priority 2024, published 2025).

Format in all cases: cell-based, human
Assay [1] concerns BEAS-2B cells. In words: Seahorse substrate oxidation stress test (glucose / fatty acid oxidation). The settings on record: for maximal respiration of cells with oxidation inhibitor: cells with or without PM2.5. The method, then: (§1) Cell Mito stress test: BEAS-2B cells were seeded in the XF 96-well Seahorse assay miniplates with a density of 20,000 cells/well in BEGM™ bronchial epithelial cell growth medium and incubated for 24 h at 37° C. After exposure, the cells were washed with XF assay medium including 10 mM glucose, 1 mM sodium pyruvate, and 2 mM L-glutamine (adjusted pH to 7.4 with 0.1 M NaOH) and incubated for 1 h in a 37° C. non-CO2 incubator. Before assay, the sensor cartridge was hydrated in Agilent Seahorse XF Calibrant at 37° C. in a non-CO2 incubator overnight, and oligomycin (port A final 1 μM), carbonyl cyanide-4-(trifluoromethoxy) phenylhydrazone (FCCP) (port B final 1 μM chosen from the optimization assay) and rotenone antimycin A (port C final 0.5 μM) were added to the corresponding ports of the hydrated sensor cartridge. Then the cartridge was transferred to the Seahorse analyzer (Agilent Technologies) to calibrate the period for approximately 20 min. When the calibration has been completed, the utility plate was removed and the cell miniplate was placed to start the assay. The assay was divided into four parts. After the equilibration period was three basal assays, and then oligomycin was added to inhibit the complex V (ATP synthase) for three cycles, FCCP was followed to stimulate maximal respiration in mitochondria by uncoupling ATP synthesis from electron transport. Lastly, rotenone plus antimycin A was added to determine the non-mitochondrial respiratory rate. Oxygen consumption rate (OCR) was used to assess the mitochondrial respiratory change.
The substrate oxidation stress test was used to assess the specific mitochondrial substrates that were relevant or required for cellular phenotype and function. Two different inhibitors (UK50099 for the glucose pathway and etomoxir for the long-chain fatty acids pathway) were added before the Mito stress test and the following process was the same with the Mito stress test.

For assay [2], the system named is BEAS-2B cells. In words: Cell viability (CCK-8) of BEAS-2B cells given metabolic markers, then PM2.5. Particulars: metabolite 25-200 μM for 24 h, then 200 μg/mL PM2.5 for 24 h. As for the experimental part: (§2) To detect the cell viability, different concentrations (25 μM, 50 μM, 100 μM, and 200 μM) of selected metabolic markers were added to BEAS-2B cell cultures for 24 h, followed by 200 μg/mL PM2.5 samples for another 24 h. After exposure, 10 μL CCK-8 with 100 μL mediums were added to the cells and incubated for 1.5 h, the absorption was detected at 450 nm to assess cell viability. Agilent Seahorse assays were used to evaluate the effects of metabolic markers on mitochondrial functions. The OCR of cells was determined after being treated by both metabolic markers (200 μM) and PM2.5 samples (200 μg/mL) (n=3).

In assay [3] the test system is OGT. The assay can be described thus: qPCR gene expression, OGT. The settings on record: after PM2.5 exposure. As for the experimental part: (§3) Total RNA was extracted from BEAS-2B cells with RNAiso plus kit (TaKaRa, Shiga, Japan) according to the manufacturer's instructions. Reverse transcription of cDNA synthesis and real-time quantitative polymerase chain reaction (qPCR) were performed as described previously. All primers synthesized at BGI Co., Ltd. (Hong Kong, China) were described in Table 2.
On the technique in general: In qPCR the cycle at which signal appears reflects the starting amount.

In assay [4] the test system is BEAS-2B cells. The assay can be described thus: Seahorse Cell Mito stress test (OCR). The settings on record: for ATP production / basal respiration / maximal respiration: after exposure to PM2.5 from both Taiyuan and Guangzhou (200 μg/mL), metabolite 200 μM. As for the experimental part: as §2, §1
For assay [5], the system named is GFAT. The assay can be described thus: qPCR gene expression, GFAT. The settings on record: after exposure to PM2.5. The method, then: as §3
Assay [6] concerns PGC-1α. In words: qPCR gene expression, PGC-1α. Particulars: repressed by PM2.5 exposure. The method, then: as §3
The test system of assay [7] is Phospho1. In words: qPCR gene expression, Phospho1. As for the experimental part: as §3

On to `CCOC(=O)[C@@]1(CCCCCCOc2ccc(Cl)cc2)CO1` [etomoxir, reference compound], for which the “maximal respiration of cells with oxidation inhibitor” value in assay [1] is listed as “did not change”.
Consider `CN(CC(=O)O)C(=N)N` [creatine], for which the “cell viability reduced by PM2.5 exposure” value in assay [2] was “improve the cell viability”.
Consider `N#C/C(=C\c1cn(-c2ccccc2)c2ccccc12)C(=O)O` [UK5099, reference compound], for which the “maximal respiration of cells with oxidation inhibitor” value in assay [1] is on record as “remarkably reduced”.
As to “uridine diphosphate N-acetylglucosamine [UDP-GlcNAc]”, the “increase of cells' glucose oxidation” value in assay [1] (cultures with and without PM2.5) is recorded as 1.6 fold. In assay [3], the OGT expression result was “partially rescued”. In assay [4], the ATP production entry is on record as “significantly increase”, the basal respiration entry is recorded as “significantly increase” and the maximal respiration result was “significantly increase”. In addition, in assay [5], the GFAT expression entry is “interacted with the decline of GFAT”.
On to `C[N+](C)(C)CCOP(=O)([O-])O` [Pc, phosphocholine], for which the “cell viability reduced by PM2.5 exposure” value in assay [2] is recorded as “improve the cell viability”. Moreover, the “maximal respiration, fatty acid oxidation test” value in assay [1] (only in the PM2.5-exposed lung cells) is on record as “significantly increased”. The PGC-1α expression entry in assay [6] is given as “rescued”. Besides, the Phospho1 expression result in assay [7] (after PM2.5 exposure) was “greatly downregulated”. In addition, in assay [7] (normal cells), the Phospho1 expression entry is on record as “no effects”. Moreover, in assay [4], the ATP production result is on record as “significantly increase”, the basal respiration result is on record as “significantly increase” and the maximal respiration result was “significantly increase”. Further, the “effect against adverse impacts of the TY1 panel on mitochondrial functions” value in assay [4] (cells exposed to TY1) is reported as “protective effects”.
Regarding `NCCS(=O)(=O)O` [taurine], the “cell viability reduced by PM2.5 exposure” value in assay [2] is given as “improve the cell viability”.
On to `CC(=O)N[C@@H](CC(=O)O)C(=O)O` [NAA, N-acetyl-aspartic acid], for which, in assay [4], the ATP production result is reported as “significantly increase”, the basal respiration result is recorded as “significantly increase” and the maximal respiration result was “significantly increase”.
